Assay results from patent US7144865B2, “Compositions and methods for treating obesity” (The United States of America as represented by the …, priority 2003, dated 2006).
Where two headings read alike, the source gives them in different places.

Legend:
[1] = Arachidonic acid plus zinc and L-histidine in drinking water for 14 days in ob/ob and lean mice (Example 2, Table 3); format: in vivo; details: for Body Weight Gain / Food Intake / Water Intake: 14 days, mean ± SEM
Method: Eight week old male C57BL/6J-obese ob/ob mice and their lean wild-type littermates were randomly divided into five groups of five mice and treated with the following levels of AA in drinking water: (i) 0 mg AA/l; (ii) 10 mg AA/l; (iii) 20 mg AA/l; (iv) 50 mg AA/l; or (v) 100 mg AA/l. 10 mg zinc and 0.5 mg L-histidine/l were also included at each level of AA described above. The treatment solutions were replaced with freshly prepared solutions every other day during the 2-week treatment period. Body weight, and food and water intake were measured every other day in the morning, beginning the first day of treatment.

[2] = Water intake in G-K rats treated with AA plus zinc (Example 3, FIG. 10); format: in vivo; details: One-month old G-K rats, 2 weeks
Excerpt: (FIG. 10). Thus, water intake was reduced in rats with all treatments containing zinc relative to DW-treated rats, but not with the AA-only treatment.

[3] = system: intestinal zinc absorption; details: normal (non-diabetic) rats, oral, cited from earlier work
[4] = system: intestinal zinc transport; details: cited from earlier work
[5] = cited from earlier work
[6] = cited from earlier work; remark: listed apart in the source
[7] = CHP plus zinc and L-histidine in drinking water for 21 days in ob/ob and lean mice (Example 5, Table 1); format: in vivo; details: for Body Weight Gain / Food Intake / Water Intake: 21 days, mean ± SEM
Method: Ob/ob and lean mice were randomly divided into four groups and treated with drinking water containing either 0, 0.5, 1.0, or 1.5 mg CHP/L plus 10 mg zinc and 0.5 mg L-histidine/L. Drinking water containing test substances was prepared every other day with freshly prepared solutions. During the testing non-fasting blood glucose concentrations, food and water intake, and body weight were measured every other day in the morning. Non-fasting plasma insulin concentrations and three-hour average blood glucose concentrations were determined at the end of the three-week treatment period.

[8] = Plasma insulin levels in G-K rats treated with zinc and CHP (Example 1, Table 2); format: in vivo; details: for Plasma Insulin Levels (mean ± SEM): 6-month old G-K rats
Excerpt: However, higher doses of CHP decreased plasma insulin levels. (Table 2)

[9] = cited from earlier work; remark: listed apart in the source
[10] = humans; CHP intake; cited from earlier work
[11] = Body weight and growth rate of G-K rats treated with zinc or zinc plus CHP (FIGS. 1, 2, 11-13); format: in vivo; details: one month old (young) G-K rats; FIG. 2
Excerpt: I believe that CHP is effective in maintaining body weight control even after the cessation of the treatment.

[12] = Food and water intake in G-K rats treated with zinc or zinc plus CHP (FIGS. 6, 8); format: in vivo
[13] = Body weight and water intake in S-D rats treated with zinc or zinc plus CHP (FIGS. 4, 5, 9); details: 8-month old S-D rats; FIG. 9
[14] = Lean mice, 10 mg/L AA plus 10 mg/L zinc and 0.5 mg/L L-histidine
[15] = Lean mice, 20 mg/L AA plus 10 mg/L zinc and 0.5 mg/L L-histidine
[16] = Lean mice, 50 mg/L AA plus 10 mg/L zinc and 0.5 mg/L L-histidine
[17] = Lean mice, 100 mg/L AA plus 10 mg/L zinc and 0.5 mg/L L-histidine
[18] = Ob/ob mice, 10 mg/L AA plus 10 mg/L zinc and 0.5 mg/L L-histidine
[19] = Ob/ob mice, 20 mg/L AA plus 10 mg/L zinc and 0.5 mg/L L-histidine, p < 0.05 vs 0 mg/l group
[20] = Ob/ob mice, 50 mg/L AA plus 10 mg/L zinc and 0.5 mg/L L-histidine
[21] = Ob/ob mice, 100 mg/L AA plus 10 mg/L zinc and 0.5 mg/L L-histidine
[22] = Lean mice, 0.5 mg/L CHP plus 10 mg/L zinc and 0.5 mg/L L-histidine
[23] = Lean mice, 1.0 mg/L CHP plus 10 mg/L zinc and 0.5 mg/L L-histidine
[24] = Lean mice, 1.5 mg/L CHP plus 10 mg/L zinc and 0.5 mg/L L-histidine
[25] = Ob/ob mice, 0.5 mg/L CHP plus 10 mg/L zinc and 0.5 mg/L L-histidine
[26] = Ob/ob mice, 1.0 mg/L CHP plus 10 mg/L zinc and 0.5 mg/L L-histidine
[27] = Ob/ob mice, 1.5 mg/L CHP plus 10 mg/L zinc and 0.5 mg/L L-histidine

Structure (SMILES): CCCCC/C=C\C/C=C\C/C=C\C/C=C\CCCC(=O)O [AA, arachidonic acid]
- Body Weight Gain [1, 14]: 1.0 ± 0.2 g
- Food Intake [1, 14]: 143.9 ± 13.2 g/kg BW/day
- Water Intake [1, 14]: 207.3 ± 23.6 ml/kg BW/day
- Body Weight Gain [1, 15]: 0.6 ± 0.2 g
- Food Intake [1, 15]: 129.9 ± 11.1 g/kg BW/day
- Water Intake [1, 15]: 211.6 ± 23.6 ml/kg BW/day
- Body Weight Gain [1, 16]: 1.0 ± 0.3 g
- Food Intake [1, 16]: 133.1 ± 9.5 g/kg BW/day
- Water Intake [1, 16]: 211.9 ± 21.5 ml/kg BW/day
- Body Weight Gain [1, 17]: 0.6 ± 0.1 g
- Food Intake [1, 17]: 130.0 ± 13.2 g/kg BW/day
- Water Intake [1, 17]: 216.1 ± 21.0 ml/kg BW/day
- Body Weight Gain [1, 18]: 2.3 ± 0.7 g
- Food Intake [1, 18]: 126.5 ± 13.2 g/kg BW/day
- Water Intake [1, 18]: 215.9 ± 15.2 ml/kg BW/day
- Body Weight Gain ([1]; Ob/ob mice, 20 mg/L AA plus 10 mg/L zinc and 0.5 mg/L L-histidine): 2.6 ± 0.4 g
- Food Intake [1, 19]: 107.5 ± 9.0 g/kg BW/day
- Water Intake [1, 19]: 182.9 ± 12.4 ml/kg BW/day
- Body Weight Gain [1, 20]: 2.4 ± 1.7 g
- Food Intake [1, 20]: 114.4 ± 9.9 g/kg BW/day
- Water Intake ([1]; Ob/ob mice, 50 mg/L AA plus 10 mg/L zinc and 0.5 mg/L L-histidine, p < 0.05 vs 0 mg/l group): 188.7 ± 11.5 ml/kg BW/day
- Body Weight Gain [1, 21]: 2.9 ± 0.5 g
- Food Intake [1, 21]: 116.0 ± 12.0 g/kg BW/day
- Water Intake ([1]; Ob/ob mice, 100 mg/L AA plus 10 mg/L zinc and 0.5 mg/L L-histidine, p < 0.05 vs 0 mg/l group): 198.9 ± 15.3 ml/kg BW/day
- water and food intake ([1]; lean mice): no treatment effect
- Food intake versus those treated with only zinc and L-histidine ([1]; obese mice, 20 mg/L AA plus zinc, p<0.05): significantly lower
- Water intake versus those given only zinc and L-histidine ([1]; obese mice, 20, 50 or 100 mg AA/l, p<0.05): significantly lower
- body weight ([1]; obese or lean mice): no effect
- water intake reduced relative to DW-treated rats ([2]; AA-only treatment (20 mg/L AA)): not
- intestinal zinc absorption ([3]; high doses of AA, above 1.0 mg/200 g body weight): increased
- intestinal zinc absorption ([3]; low doses of AA (0.5 mg/200 g)): decreased
- zinc uptake (rate) of intestinal segments ([4]; jejunal / isolated intestinal segments of diabetic rats, AA added to the segment-bathing medium): increased significantly
- zinc transport rate into the circulatory system ([4]; jejunal segments of diabetic rats): did not enhance
- Water Intake ([5]; diabetic G-K rats): significantly reduced
- optimal concentration of AA required to provide improved blood glucose levels ([5]; diabetic G-K rats): 4.0 mg/day/kg
- water consumption rates ([5]; diabetic rats, higher doses of AA): significantly decreased
- optimal concentration of AA required to provide improved blood glucose levels ([5]; streptozotocin induced diabetic rats): 11 mg/day/kg
- Water Intake ([5]; streptozotocin-induced diabetic rats): significantly reduced
- Water Intake ([6]; genetically obese mice): significantly reduced
- optimal concentration of AA required to provide improved blood glucose levels ([6]; obese mice): 2.0 mg/day/kg

Structure (SMILES): O=C1N[C@@H](Cc2cnc[nH]2)C(=O)N2CCC[C@@H]12 [CHP, cyclo-Hispro]
- Body Weight Gain [7, 22]: 1.5 ± 0.4 g
- Food Intake [7, 22]: 171.7 ± 12.5 g/kg BW/day
- Water Intake [7, 22]: 267.1 ± 22.7 ml/kg BW/day
- Body Weight Gain [7, 23]: 1.3 ± 0.5 g
- Food Intake [7, 23]: 159.6 ± 7.3 g/kg BW/day
- Water Intake [7, 23]: 258.2 ± 21.8 ml/kg BW/day
- Body Weight Gain [7, 24]: 2.2 ± 0.9 g
- Food Intake [7, 24]: 180.6 ± 19.5 g/kg BW/day
- Water Intake [7, 24]: 302.5 ± 27.2 ml/kg BW/day
- Body Weight Gain [7, 25]: 4.3 ± 0.8 g
- Food Intake [7, 25]: 128.3 ± 7.8 g/kg BW/day
- Water Intake [7, 25]: 198.2 ± 13.5 ml/kg BW/day
- Food Intake [7, 26]: 110.6 ± 10.3 g/kg BW/day
- Water Intake [7, 26]: 160.4 ± 9.7 ml/kg BW/day
- Body Weight Gain ([7]; Ob/ob mice, 1.0 mg/L CHP plus 10 mg/L zinc and 0.5 mg/L L-histidine, p < 0.05 vs 0 or 0.5 mg CHP/L): 2.3 ± 0.8 g
- Body Weight Gain [7, 27]: 3.8 ± 0.9 g
- Food Intake [7, 27]: 120.7 ± 10.4 g/kg BW/day
- Water Intake [7, 27]: 192.5 ± 16.8 ml/kg BW/day
- Water and food intake relative to the other treatment groups ([7]; ob/ob mice, 1.0 mg CHP plus zinc and L-histidine, difference not significant): lowest
- Body weight gain relative to those given zinc and L-histidine only ([7]; ob/ob mice, 1.0 mg CHP/L plus zinc and L-histidine, P<0.05): significantly reduced
- Plasma Insulin Levels (mean ± SEM) ([8]; CHP only 1.0 mg/L in drinking water): 0.907 ± 0.090 ng/mL
- plasma insulin levels ([8]; hyperinsulinemic diabetic G-K rats, higher / increasing doses of CHP): decreased
- Water Intake ([9]; intraventricular administration): significantly reduces
- Food Intake ([9]; rats, CHP intake): decreases
- Food Intake [10]: decreases

Structure (SMILES): [Zn] [zinc]
- Plasma Insulin Levels (mean ± SEM) ([8]; zinc only 10 mg/L in drinking water): 0.637 ± 0.048 ng/mL
- Water Intake ([2]; 10 mg/L zinc only): significantly decreased
- growth rates [11]: not affected
- Water Intake ([12]; 1.0-month-old rats): not affected
- Water intake compared to distilled water (DW) treated rats ([12]; 10 month old G-K rats, P<0.01, FIG. 8): significantly lower
- water intakes [13]: significantly decreased
